Measured values from patent US4025506A, “Broad spectrum antibiotics” (Pfizer Inc., priority 1975, dated 1977).
Values after ≈ are worked out from the molar mass of the structure shown. Where two headings read alike, the source gives them in different places.

Columns and labels:
[1] = test system: P. mirabilis 57C0015; assay: In vitro antibacterial MIC, P. mirabilis 57C0015; assay type: cell-based; details: Proteus mirabilis
Excerpt: (§1) The in vitro activity of the herein described compounds renders them useful for topical application in the form of ointments, creams and the like, or for sterilization purposes, e.g., sick-room utensils.
(§2) Table I compares the in vitro profile of 6-[D-2-phenyl-2-(amidinopropionamido)acetamido]penicillanic acid (PAP) with ampicillin (AMP) and carbenicillin (CAR).

[2] = test system: E. coli 51A266; assay: In vivo protection against experimental E. coli infection in mice (Table II); details: doses 0.5, 4 and 24 hours after inoculation
Description: Table II presents the in vivo comparison data for the three compounds contained in Table I against several experimental infections in mice.
The values (% survivors) are obtained under standard conditions known to those skilled in the art. For the E. coli organism, the test compound is administered to the infected mice by a multiple dosing regimen in which the first dose is given 0.5 hour after inoculation and is repeated 4 and 24 hours later.

[3] = test system: Kleb. penumoniae 53A015; assay: In vitro antibacterial MIC, Kleb. penumoniae 53A015; assay type: cell-based; details: nutrient broth, Table I
Excerpt: as §1, §2

[4] = test system: A. aerogenes 55A002; assay: In vitro antibacterial MIC, A. aerogenes 55A002; assay type: cell-based; details: Klebsiella aerogenes, nutrient broth, Table I
Excerpt: as §1, §2

[5] = test system: E. coli 51A002; assay: In vitro antibacterial MIC, E. coli 51A002; assay type: cell-based; details: Escherichia coli, nutrient broth, Table I
Excerpt: as §1, §2

[6] = test system: S. aureus 01A005; assay: In vitro antibacterial MIC, S. aureus 01A005; assay type: cell-based; details: Staphylococcus aureus
Excerpt: as §1, §2

[7] = test system: E. coli 51A266; assay: In vivo protection against E. coli infection in mice (Table IV); details: doses 0.5, 4 and 24 hours after inoculation
Description: Table IV presents in vivo comparison data for the four compounds in Table III against E. coli infections in mice.
The values, reported as % survivors, are obtained under standard conditions familiar to those skilled in the art. The test compound is administered to the infected mice by a multiple dosing regimen in which the first dose is given 0.5 hour after inoculation and is repeated 4 and 24 hours later.

[8] = test system: A. aerogenes; assay: In vitro antibacterial MIC, A. aerogenes; assay type: cell-based; details: Klebsiella aerogenes
Excerpt: as §1, §2

[9] = test system: E. coli 51A266; assay: In vitro antibacterial MIC, E. coli 51A266; assay type: cell-based; details: Escherichia coli
Excerpt: as §1, §2

[10] = test system: P. mirabiis 57C015; assay: In vitro antibacterial MIC, P. mirabiis 57C015; assay type: cell-based
Excerpt: as §1, §2

[11] = test system: Ps. aeruginosa 52A104; assay: In vitro antibacterial MIC, Ps. aeruginosa 52A104; assay type: cell-based; details: Pseudomonas aeruginosa
Excerpt: as §1, §2

[12] = test system: Kleb. pneumoniae 53A009; assay: In vitro antibacterial MIC, Kleb. pneumoniae 53A009; assay type: cell-based; details: Klebsiella pneumoniae
Excerpt: as §1, §2

[13] = test system: Ser. marcescens 63A001; assay: In vitro antibacterial MIC, Ser. marcescens 63A001; assay type: cell-based; details: Serratia marcescens
Excerpt: as §1, §2

[14] = test system: Ps. aeruginosa 52A490; assay: In vitro antibacterial MIC, Ps. aeruginosa 52A490; assay type: cell-based; details: Pseudomonas aeruginosa
Excerpt: as §1, §2

[15] = test system: gram-negative bacteria; details: cited from earlier work
[16] = P. mirabilis 57C0015, nutrient broth, Table I, read-out: MIC

In the case of `CC1(C)S[C@@H]2[C@H](NC(=O)[C@H](N)c3ccccc3)C(=O)N2[C@H]1C(=O)O` [AMP, ampicillin], the MIC ([1]; 57C0015) is reported as 1.56 mg/L (≈ 4.46 µM), the “% Protection (% survivors)” value ([2]; PO, 50 mg./kg.) is reported as 80% and the “% Protection (% survivors)” value ([2]; PO, 200 mg./kg.) is reported as 90%. The “% Protection (% survivors)” value ([2]; SC, 50 mg./kg.) was 80% and the “% Protection (% survivors)” value ([2]; SC, 200 mg./kg.) was 90%.

For `CC1(C)S[C@@H]2[C@H](NC(=O)C(C(=O)O)c3ccccc3)C(=O)N2[C@H]1C(=O)O` (some centres unmarked) [CAR, carbenicillin], the MIC [3] was over 200 mg/L, the MIC [1, 16] was 1.25 mg/L (≈ 3.3 µM) and the “% Protection (% survivors)” value ([2]; PO, 50 mg./kg.) was 10%. For the same molecule, the “% Protection (% survivors)” value ([2]; PO, 200 mg./kg.) was 70%, the “% Protection (% survivors)” value ([2]; SC, 50 mg./kg.) was 90% and the “% Protection (% survivors)” value ([2]; SC, 200 mg./kg.) was 90%.

`CC1(C)S[C@@H]2[C@H](NC(=O)[C@H](NC(=O)CCC(=N)N)c3ccccc3)C(=O)N2[C@H]1C(=O)O` [PAP, 6-[D-2-phenyl-2-(amidinopropionamido)acetamido]penicillanic acid] showed an MIC [3] of over 200 mg/L, an MIC [4] of 100 mg/L (≈ 223 µM) and an MIC [5] of 200 mg/L (≈ 447 µM). The MIC [1, 16] was 6.25 mg/L (≈ 14 µM), the “% Protection (% survivors)” value ([2]; PO, 50 mg./kg.) was 20% and the “% Protection (% survivors)” value ([2]; PO, 200 mg./kg.) was 30%. For the same molecule, the “% Protection (% survivors)” value ([2]; SC, 50 mg./kg.) was 80% and the “% Protection (% survivors)” value ([2]; SC, 200 mg./kg.) was 80%.

With `CC1(C)S[C@@H]2[C@H](NC(=O)C(NC(=O)CNC(=N)c3ccc(Br)cc3)c3ccccc3)C(=O)N2[C@H]1C(=O)O` (some centres unmarked) [X = Br] the MIC [6] was 0.39 mg/L (≈ 0.663 µM), the “% Survivors” value ([7]; PO, 25 mg./kg.) was 10% and the “% Survivors” value ([7]; PO, 50 mg./kg.) was 0%. The “% Survivors” value ([7]; PO, 200 mg./kg.) was 0%, the “% Survivors” value ([7]; SC, 25 mg./kg.) was 50% and the “% Survivors” value ([7]; SC, 50 mg./kg.) was 60%. The “% Survivors” value ([7]; SC, 200 mg./kg.) was 90%, the MIC [8] was 3.12 mg/L (≈ 5.3 µM) and the MIC [9] was 0.39 mg/L (≈ 0.663 µM). It also gave an MIC [10] of 3.12 mg/L (≈ 5.3 µM), an MIC [11] of 25 mg/L (≈ 42.5 µM) and an MIC [12] of 12.5 mg/L (≈ 21.2 µM). For the same molecule, the MIC [13] was 6.25 mg/L (≈ 10.6 µM) and the MIC [14] was 6.25 mg/L (≈ 10.6 µM).

In the case of `CC1(C)S[C@@H]2[C@H](NC(=O)C(NC(=O)CNC(=N)c3ccc(Cl)cc3)c3ccccc3)C(=O)N2[C@H]1C(=O)O` (some centres unmarked) [X = Cl], the MIC [6] is reported as 0.39 mg/L (≈ 0.717 µM), the “% Survivors” value ([7]; PO, 25 mg./kg.) is reported as 0% and the “% Survivors” value ([7]; PO, 50 mg./kg.) is reported as 0%. For the same molecule, the “% Survivors” value ([7]; PO, 200 mg./kg.) was 0%, the “% Survivors” value ([7]; SC, 25 mg./kg.) was 50% and the “% Survivors” value ([7]; SC, 50 mg./kg.) was 60%. The “% Survivors” value ([7]; SC, 200 mg./kg.) was 70%, the MIC [8] was 3.12 mg/L (≈ 5.73 µM) and the MIC [9] was 0.78 mg/L (≈ 1.43 µM). For the same molecule, the MIC [10] was 3.12 mg/L (≈ 5.73 µM), the MIC [11] was 25 mg/L (≈ 46 µM) and the MIC [12] was 12.5 mg/L (≈ 23 µM). It also gave an MIC [13] of 6.25 mg/L (≈ 11.5 µM) and an MIC [14] of 12.5 mg/L (≈ 23 µM).

For `CC1(C)S[C@@H]2[C@H](NC(=O)C(NC(=O)CNC(=N)c3ccc(F)cc3)c3ccccc3)C(=O)N2[C@H]1C(=O)O` (some centres unmarked) [X = F], the MIC [6] was 0.39 mg/L (≈ 0.739 µM), the “% Survivors” value ([7]; PO, 25 mg./kg.) was 10% and the “% Survivors” value ([7]; PO, 50 mg./kg.) was 0%. For the same molecule, the “% Survivors” value ([7]; PO, 200 mg./kg.) was 10%, the “% Survivors” value ([7]; SC, 25 mg./kg.) was 50% and the “% Survivors” value ([7]; SC, 50 mg./kg.) was 70%. For the same molecule, the “% Survivors” value ([7]; SC, 200 mg./kg.) was 90%, the MIC [8] was 25 mg/L (≈ 47.4 µM) and the MIC [9] was 1.56 mg/L (≈ 2.96 µM). For the same molecule, the MIC [10] was 3.12 mg/L (≈ 5.91 µM), the MIC [11] was 12.5 mg/L (≈ 23.7 µM) and the MIC [12] was 25 mg/L (≈ 47.4 µM). For the same molecule, the MIC [13] was 6.25 mg/L (≈ 11.8 µM) and the MIC [14] was 3.12 mg/L (≈ 5.91 µM).

With `CC1(C)S[C@@H]2[C@H](NC(=O)C(NC(=O)CNC(=N)c3ccccc3)c3ccccc3)C(=O)N2[C@H]1C(=O)O` (some centres unmarked) [X = H] the MIC [6] was 0.78 mg/L (≈ 1.53 µM), the “% Survivors” value ([7]; PO, 25 mg./kg.) was 0% and the “% Survivors” value ([7]; PO, 50 mg./kg.) was 0%. For the same molecule, the “% Survivors” value ([7]; PO, 200 mg./kg.) was 10%, the “% Survivors” value ([7]; SC, 25 mg./kg.) was 10% and the “% Survivors” value ([7]; SC, 50 mg./kg.) was 70%. The “% Survivors” value ([7]; SC, 200 mg./kg.) was 90%, the MIC [8] was 25 mg/L (≈ 49.1 µM) and the MIC [9] was 12.5 mg/L (≈ 24.5 µM). For the same molecule, the MIC [10] was 12.5 mg/L (≈ 24.5 µM), the MIC [11] was 25 mg/L (≈ 49.1 µM) and the MIC [12] was 100 mg/L (≈ 196 µM). The MIC [13] was 12.5 mg/L (≈ 24.5 µM) and the MIC [14] was 12.5 mg/L (≈ 24.5 µM).

In the case of `CC1(C)S[C@@H]2[C@H](NC(=O)C(C(=O)O)c3ccccc3)C(=O)N2[C@H]1C(=O)O` (stereo partly drawn) [α-Carboxybenzylpenicillin], the “utility via oral administration (in words)” value ([15]; oral) is given as “limited utility via oral administration” and the “efficacy against gram-negative bacteria (in words)” value ([15]; parenteral route) is given as “greater efficacy against gram-negative bacteria”.
